# Values quoted from earlier work as cited in patent US8524769B2, “Process for producing a fraction enriched up to 100% of 3-O-acetyl-11-keto-beta-boswellic acid from an extract containing a mixture of boswellic acids” (Laila Impex, priority 2002, dated 2013).
# Tested on: 5-lipoxygenase (5-LO)
# Settings: compared among all six boswellic acids; Sailer et al., British J. Pharmacology 117, 615-618, 1996
# Sequence of 5-lipoxygenase (5-LO) (P09917 whole entry, species assumed): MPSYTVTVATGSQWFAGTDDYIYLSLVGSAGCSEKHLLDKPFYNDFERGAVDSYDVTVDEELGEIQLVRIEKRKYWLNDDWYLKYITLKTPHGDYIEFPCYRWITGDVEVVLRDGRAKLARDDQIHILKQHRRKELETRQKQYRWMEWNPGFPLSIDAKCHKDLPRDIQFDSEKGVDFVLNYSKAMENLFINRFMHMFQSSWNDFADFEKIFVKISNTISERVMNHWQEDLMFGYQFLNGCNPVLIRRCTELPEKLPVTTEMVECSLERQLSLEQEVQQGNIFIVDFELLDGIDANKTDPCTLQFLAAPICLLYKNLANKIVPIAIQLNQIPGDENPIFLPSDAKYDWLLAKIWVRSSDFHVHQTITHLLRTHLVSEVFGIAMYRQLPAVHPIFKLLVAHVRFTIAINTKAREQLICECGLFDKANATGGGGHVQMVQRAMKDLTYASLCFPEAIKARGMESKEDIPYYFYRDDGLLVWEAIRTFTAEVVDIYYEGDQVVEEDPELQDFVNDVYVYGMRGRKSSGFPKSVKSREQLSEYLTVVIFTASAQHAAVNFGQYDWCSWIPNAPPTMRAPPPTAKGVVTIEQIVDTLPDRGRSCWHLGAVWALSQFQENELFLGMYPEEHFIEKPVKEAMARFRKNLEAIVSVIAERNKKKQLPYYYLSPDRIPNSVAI
substance,measurement,value
3-O-acetyl-11-keto-β-boswellic acid [AKBA],inhibitory activity on 5-lipoxygenase,most pronounced inhibitory activity
